According to PMC3163098 (2011):

How the values were obtained:
Type in all cases: binding
cytochrome P450 2B4 [1] = target: T1, cytochrome P450 2B4 (Oryctolagus cuniculus, UniProt P00178, H226Y); assay: UV-visible difference spectral titration
T1 sequence (P00178 28-491 H226Y): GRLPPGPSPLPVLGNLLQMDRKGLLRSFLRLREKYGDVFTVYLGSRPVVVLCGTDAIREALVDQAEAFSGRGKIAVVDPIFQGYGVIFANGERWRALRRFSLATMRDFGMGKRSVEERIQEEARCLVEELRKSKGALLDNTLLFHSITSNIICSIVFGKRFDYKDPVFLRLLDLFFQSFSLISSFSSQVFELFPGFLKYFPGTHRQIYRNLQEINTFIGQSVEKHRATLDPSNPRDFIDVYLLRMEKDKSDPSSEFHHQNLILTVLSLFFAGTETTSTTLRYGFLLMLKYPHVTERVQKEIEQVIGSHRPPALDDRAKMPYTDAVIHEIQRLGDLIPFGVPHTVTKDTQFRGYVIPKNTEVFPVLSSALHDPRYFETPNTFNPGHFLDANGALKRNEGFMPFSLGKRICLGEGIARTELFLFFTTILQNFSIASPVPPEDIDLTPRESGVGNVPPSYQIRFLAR

cytochrome P450 2B4 [2] = target: T1, cytochrome P450 2B4; assay: UV-visible competition with benzphetamine
cytochrome P450 2B4 [3] = target: T1, cytochrome P450 2B4; assay: UV-visible difference spectral titration; remark: listed apart in the source
cytochrome P450 2B4 [4] = target: T1, cytochrome P450 2B4; assay: UV-visible difference spectral titration; remark: listed apart in the source

Compound: Cc1c(N)c(=O)n(-c2ccccc2)n1C [AAP, aminoantipyrine]
- Kd (cytochrome P450 2B4 [1]): 2600 µM

Compound: Cc1c(N(C)C)c(=O)n(-c2ccccc2)n1C [AP, amidopyrine]
- Kd (cytochrome P450 2B4 [2]): 2000 µM

Compound: C[C@@H](Cc1ccccc1)N(C)Cc1ccccc1 [BP, benzphetamine]
- Kd (cytochrome P450 2B4 [3]): 34 µM

Compound: CNc1c(C)n(C)n(-c2ccccc2)c1=O [DMAP, desmethylamidopyrine]
- Kd (cytochrome P450 2B4 [4]): 3200 µM
